According to patent publication US10596190B2, “Method for reducing ototoxicity in pediatric patients receiving platinum-based chemotherapy” (priority 2017, dated 2020):
Like-named read-outs stand apart in the source and are kept apart here.

Assays:
[1] = in a solution of sodium chloride; cited from earlier work
[2] = system: patients receiving Cisplatin chemotherapy for standard risk hepatoblastoma; format: in vivo, human
Source text: The control arm included cisplatin only treated patients and the test arm including cisplatin treated patients followed by administration of STS.
The primary end point of the study was the rate of Brock grade ≥1 hearing loss determined after end of trial treatment or at an age of at least 3.5 years, whichever was later. Secondary end-points included: response to preoperative chemotherapy, complete resection, complete remission, event free survival (EFS), overall survival (OS), toxicity as graded by CTCAE v 3.0, long-term renal clearance, and feasibility of central audiology review
• Pre-operative randomised 1:1 chemotherapy (4 courses of Cisplatin, with or without STS, every second week) • Surgical removal of all remaining tumour lesions.
For all patients, the pre-surgery courses were given on day 1, 15, 29 and 43 (exceptionally, if surgery was delayed, courses could also be given on day 57 and 71). Post-surgery courses were started as soon as possible, but within 21 days with two courses given on day 1 and 15. […] The following treatment schedules were followed:
Administration Pre-hydration • At least 3 hours pre-hydration with 2.5% dextrose/0.45% saline • Run at 200 ml/m2/hr (total volume 600 ml/m^2) Cisplatin infusion over 6 hours • Cisplatin in 0.9% sodium chloride. […]

[3] = cited from earlier work
[4] = system: small cell lung cancer cell cultures; conditions: cited from earlier work
[5] = system: pediatric patients receiving cisplatin
Source text: (§1) Secondary endpoints were frequency-specific hearing loss at 4 weeks (for 500 Hz, 1000 Hz, 2000 Hz, 4000 Hz, and 8000 Hz), haematological and renal toxicity, event free survival (defined as the time from study enrolment until disease relapse or progression, diagnosis of a second malignant neoplasm, or death, whichever came first), and overall survival (defined as the time from enrolment to death or last date confirmed alive). By protocol amendment on Mar.
We estimated the probability of remaining event free as a function of time post-enrolment using the method of Kaplan and Meier. We compared risk of event across groups defined by randomised regimen using the log-rank statistic. We generated relative hazard ratios (RHR) and 95% CIs by fitting a relative-risk regression model, using partial likelihood where the model contained the characteristic of interest as the only variable. We computed survival estimates as 3-year event-free survival and 3-year overall survival. We did a post-hoc analysis of event-free survival and overall survival by extent of disease using the same methods. We considered all eligible participants in the survival analyses by intention to treat. We did all statistical calculations using SAS (version 9.4) or Stata (version 14).

[6] = system: pediatric patients receiving cisplatin; assay: Phase 3 trial of Example 1: haematological and renal toxicity, adverse events
Description: (§2) Cisplatin was administered as specified by each participant's cancer treatment plan. For participants randomly assigned to the control group, the cisplatin containing treatment regimen alone was to be administered. […] Concurrent use of other ototoxic drugs (eg, aminoglycosides and loop diuretics) was discouraged by protocol for all participants but captured in data reporting.
as §1
For haematological and renal toxicity, denominators represent the number of participants who completed the required toxicity assessment during each cycle. For both types of toxicity, we assessed the hypothesis of no difference in incidence using a χ^2 test of proportions.

[7] = system: pediatric patients receiving cisplatin; conditions: for Incidence of hearing loss / Hearing loss: 4 weeks; for Mean change in hearing threshold: baseline to 4 weeks after cisplatin, negative = better threshold
Source text: The study was designed as a multicentre, randomised, open-label, phase 3 clinical trial. Patients were enrolled at 38 participating Children's Oncology Group (COG) hospitals in the USA and Canada. Written consent or assent from participants or their legal guardians were obtained before registration. The study was approved by the US National Cancer Institute (NCI) Central Institutional Review Board and site institutional review boards. Co-enrollment onto a companion observational cohort study of ototoxicity grading scales was mandatory. Participants in the study were aged 1-18 years at study entry and were newly diagnosed with hepatoblastoma, germ cell tumour, medulloblastoma or CNS primitive neuroectodermal tumour, neuroblastoma, osteosarcoma, or other cancer types treated with cisplatin.
Key eligibility criteria included planned cumulative cisplatin dose of 200 mg/m^2 or more and infusion duration of 6 h or less; performance score of 50 or more by the Karnofsky (>16 years) or Lansky (≤16 years) scales; no previous cisplatin or carboplatin treatment; no known thiol hypersensitivity; and normal institutional laboratory values reflecting haematological, renal, and hepatic function. Normal hearing was required before enrolment as defined by hearing thresholds of 20 dB hearing level (HL) or less at 500-8000 Hz when measured with earphones or 25 dB HL or less when measured in the sound field, or as defined by brainstem auditory evoked response thresholds equivalent to behavioural thresholds of 20 dB HL or less. Previous cranial irradiation was initially not allowed but later permitted, provided hearing was normal, by a protocol amendment (Mar. 31, 2010) to augment trial recruitment. Patients were not eligible if they were registered on a cancer directed COG therapeutic study to avoid potential confounding of the primary aims by the ACCL0431 randomization.
The randomization was centrally computer-generated by the COG trial management system. Allocation was electronically concealed to all investigators, clinicians, and participants. Site research staff did the enrolment, entering eligibility confirmation and specification of stratification factors into the COG trial management system, and receiving the electronically generated allocation for the site. Randomization was 1:1 and was initially stratified into four groups defined by age (<5 years or ≥5 years) and duration of cisplatin infusion (<2 h or ≥2 h). Later, we added one separate stratum for eligible participants who had previously received cranial irradiation, irrespective of age or duration of cisplatin infusion. Randomization was masked for central reviewers of audiometry data, but was not placebo controlled for participants or treating clinicians to minimise complexity and cost for participating sites.
as §2
Hearing assessments were done at baseline, up to 8 days before each cisplatin course, 4 weeks after completion of the final cisplatin course, and 1 year later. Audiometry included measurement of bilateral pure tone air conduction thresholds at 500-8000 Hz with earphones or in the sound field using paediatric hearing assessment methods; otoscopy; immittance evaluation of middle ear function; and evoked otoacoustic emissions, if available. For participants unable to cooperate due to very young age, developmental disability, or medical status, brainstem auditory evoked response thresholds were to be measured instead.
Audiological testing was completed using standard clinical audiometers, middle ear analyzers, evoked potentials systems, and evoked otoacoustic emission OAE systems (if available).

[8] = all eligible, 61 participants assigned

**Q.** For `N.N.[Cl][Pt][Cl]` [cisplatin], which Stability post dilution [1] is on record?
**A.** Its Stability post dilution is at most 7 days.

**Q.** And the “Patients having Brock grade 0 or little to no hearing loss” value ([2]; by treatment arm)?
**A.** The value was “below 40%”.

**Q.** And the “Incidence rate of Brock ≥1 hearing loss” value ([2]; by treatment arm (cisplatin only or cisplatin followed by STS))?
**A.** Its value is 67%.

**Q.** Which “Excreted unchanged in the urine” value ([3]; following IV injection) does the source give for sodium thiosulfate here?
**A.** Its value is “Up to 95%”.

**Q.** What about the Biological half-life ([3]; in vivo) of the same compound?
**A.** The Biological half-life was 0.65 hours.

**Q.** What about the “Biological half-life, range dependent on dose” value ([3]; in vivo) of the same compound?
**A.** Its value is 16.5-182 minutes.

**Q.** What about the “Effect of STS on cytotoxicity of etoposide” value ([4]; immediate or delayed addition of STS, incubation for 72 hours) of the same compound?
**A.** The value was “no reduction of cytotoxicity”.

**Q.** What about the “Effect of STS on anti-tumor activity of doxorubicin, carmustine (BCNU), paclitaxel or methotrexate” value ([4]; similar studies) of the same compound?
**A.** Its value is “no reduction of anti-tumor activity”.

**Q.** And the “Deaths, number” value [5, 8]?
**A.** Its value is 17.

**Q.** What about the “Events, number” value [5, 8] of the same compound?
**A.** Its value is 26.

**Q.** What about the “Deaths, number” value ([5]; disseminated disease) of the same compound?
**A.** Its value is 11.

**Q.** And the “Events, number” value ([5]; disseminated disease)?
**A.** The value was 12.

**Q.** And the “Event-free survival vs control group” value ([5]; disseminated disease (n=47))?
**A.** Its value is “no difference”.

**Q.** And the “Overall survival vs control group” value ([5]; disseminated disease (n=47))?
**A.** The value was “significantly lower”.

**Q.** And the 3-year event-free survival ([5]; disseminated disease, post-hoc)?
**A.** Its 3-year event-free survival is 42%.

**Q.** And the 3-year overall survival ([5]; disseminated disease, post-hoc)?
**A.** Its 3-year overall survival is 45%.

**Q.** What about the 3-year event-free survival ([5]; entire sample) of the same compound?
**A.** The 3-year event-free survival was 54%.

**Q.** And the 3-year overall survival ([5]; entire sample)?
**A.** The 3-year overall survival was 70%.

**Q.** And the “Event-free survival or overall survival vs control group” value ([5]; entire sample)?
**A.** The value was “no significant difference”.

**Q.** And the “Deaths, number” value ([5]; localised disease)?
**A.** Its value is “six”.

**Q.** And the “Events, number” value ([5]; localised disease)?
**A.** Its value is 14.

**Q.** And the “Event-free survival or overall survival vs control group” value ([5]; localised disease (n=77))?
**A.** Its value is “no significant difference”.

**Q.** And the 3-year event-free survival ([5]; localised disease, post-hoc)?
**A.** Its 3-year event-free survival is 60%.

**Q.** What about the 3-year overall survival ([5]; localised disease, post-hoc) of the same compound?
**A.** The 3-year overall survival was 83%.

**Q.** What about the “Hypokalaemia (most common non-haematological adverse event), participant cycles” value ([6]; 25 of 147 participant cycles) of the same compound?
**A.** The value was 17%.

**Q.** And the “Aggregate nephrotoxicity, participant cycles affected” value ([6]; 37 of 147 participant cycles)?
**A.** Its value is 25%.

**Q.** And the “Grade 3-4 neutropenia, participant cycles” value ([6]; 117 of 177 participant cycles, irrespective of attribution)?
**A.** Its value is 66%.

**Q.** And the “Haematological toxicity, participant cycles affected” value ([6]; 137 of 177 participant cycles)?
**A.** Its value is 77%.

**Q.** What about the “Serious adverse events reported, number” value ([6]; in 26 patients) of the same compound?
**A.** Its value is 194.

**Q.** What about the “Haematological serious adverse events, number” value ([6]; in vivo) of the same compound?
**A.** Its value is 70.

**Q.** And the “Hypophosphataemia and hypokalaemia vs control group” value ([6]; in vivo)?
**A.** The value was “more common”.

**Q.** And the “Increased creatinine or reduced glomerular filtration rate meeting CTCAE grade 3 threshold” value ([6]; in vivo)?
**A.** Its value is “no cases”.

**Q.** And the “Non-haematological serious adverse events, number” value ([6]; in vivo)?
**A.** Its value is 85.

**Q.** What about the “Haematological serious adverse events deemed possibly related, number” value ([6]; of 70) of the same compound?
**A.** Its value is “four”.

**Q.** What about the “Haematological serious adverse events deemed unlikely related, number” value ([6]; of 70) of the same compound?
**A.** The value was 13.

**Q.** And the “Haematological serious adverse events deemed unrelated, number” value ([6]; of 70)?
**A.** The value was 53.

**Q.** And the “Haematological serious adverse events probably or definitely related” value ([6]; of 70)?
**A.** The value was “none”.

**Q.** What about the “Non-haematological serious adverse events deemed possibly related, number” value ([6]; of 85) of the same compound?
**A.** The value was 11.

**Q.** And the “Non-haematological serious adverse events deemed unlikely related, number” value ([6]; of 85)?
**A.** The value was 25.

**Q.** And the “Non-haematological serious adverse events deemed unrelated, number” value ([6]; of 85)?
**A.** The value was 49.

**Q.** What about the “Non-haematological serious adverse events probably or definitely related” value ([6]; of 85) of the same compound?
**A.** The value was “none”.

**Q.** And the “Serious adverse events deemed possibly related, number” value ([6]; of 194)?
**A.** The value was 20.

**Q.** And the “Serious adverse events deemed unlikely related, number” value ([6]; of 194)?
**A.** The value was 62.

**Q.** What about the “Serious adverse events deemed unrelated, number” value ([6]; of 194) of the same compound?
**A.** The value was 112.

**Q.** And the “Serious adverse events probably or definitely related” value ([6]; of 194)?
**A.** Its value is “none”.

**Q.** And the “Serious adverse events: decreased platelet count, number” value ([6]; of 194, in 12 participants)?
**A.** The value was 23.

**Q.** What about the “Serious adverse events: decreased neutrophil count, number” value ([6]; of 194, in 14 participants) of the same compound?
**A.** The value was 26.

**Q.** And the “Serious adverse events: anaemia, number” value ([6]; of 194, in ten participants)?
**A.** Its value is 21.

**Q.** What about the “Hearing loss (ASHA criteria), proportion of participants” value ([7]; 4 weeks after final cisplatin, all assessable participants (49 in STS group)) of the same compound?
**A.** The value was 28.6%.

**Q.** And the “Incidence of hearing loss” value ([7]; after cisplatin infusion of 2-6 h)?
**A.** Its value is 41.7%.

**Q.** What about the “Incidence of hearing loss” value ([7]; after cisplatin infusion of less than 2 h) of the same compound?
**A.** Its value is 16.0%.

**Q.** What about the “Incidence of hearing loss” value ([7]; older patients (5 years or more)) of the same compound?
**A.** The value was 31.4%.

**Q.** What about the “Incidence of hearing loss” value ([7]; participants younger than 5 years) of the same compound?
**A.** The value was 21.4%.

**Q.** And the Hearing loss ([7]; post-hoc, eight irradiated participants excluded)?
**A.** The Hearing loss was 26.7%.

**Q.** And the Hearing loss ([7]; stratum of previous cranial irradiation)?
**A.** Its Hearing loss is 50%.

**Q.** And the “Change between groups (Control vs STS) in mean hearing threshold change” value (shortened to “Change between groups (Control vs STS)”) ([7]; 500 Hz)?
**A.** The value was 0.4.

**Q.** What about the “Mean change in hearing threshold” value ([7]; 500 Hz) of the same compound?
**A.** The value was −1.5.

**Q.** And the “Change between groups (Control vs STS)” value ([7]; 1000 Hz)?
**A.** Its value is 0.4.

**Q.** What about the “Mean change in hearing threshold” value ([7]; 1000 Hz) of the same compound?
**A.** The value was −0.7.

**Q.** And the “Change between groups (Control vs STS)” value ([7]; 2000 Hz)?
**A.** The value was 1.8.

**Q.** What about the “Mean change in hearing threshold” value ([7]; 2000 Hz) of the same compound?
**A.** Its value is −1.2.

**Q.** What about the “Change between groups (Control vs STS)” value ([7]; 4000 Hz) of the same compound?
**A.** The value was 8.5.

**Q.** And the “Mean change in hearing threshold” value ([7]; 4000 Hz)?
**A.** The value was 1.1.

**Q.** And the “Change between groups (Control vs STS)” value ([7]; 8000 Hz)?
**A.** Its value is 7.3.

**Q.** And the “Mean change in hearing threshold” value ([7]; 8000 Hz)?
**A.** Its value is 9.7.

**Q.** What about the ASHA-defined hearing loss ([7]; at 1 year, post-hoc analysis) of the same compound?
**A.** Its ASHA-defined hearing loss is 28%.
